Blank lines part the entries; values can stand above or below the compound they belong to.
Tests used:
Homo sapiens [1] = assay: Antidiabetic activity in type-2 diabetic human model assessed as reduction in HbA1c level at 20 mg, qd administered for 12 weeks measured after post last dose relative to control; format: functional; design: scale not given: the % may be the effect or the level left
Homo sapiens [2] = assay: Antidiabetic activity in type-2 diabetic human model assessed as reduction in HbA1c level at 40 mg, qd administered for 12 weeks measured after post last dose relative to control; format: functional; design: scale not given: the % may be the effect or the level left
Homo sapiens [3] = assay: Antidiabetic activity in type-2 diabetic human model assessed as reduction in HbA1c level at 60 mg, qd administered for 12 weeks measured after post last dose relative to control; format: functional; design: scale not given: the % may be the effect or the level left
Homo sapiens [4] = assay: Antidiabetic activity in type-2 diabetic human model assessed as reduction in HbA1c level at 80 mg, qd administered for 12 weeks measured after post last dose relative to control; format: functional; design: scale not given: the % may be the effect or the level left
[5] = Half life in human; format: ADME, organism-based; conditions: in vivo
Homo sapiens [6] = organism: Homo sapiens; assay: Hypoglycemic activity in human assessed as time required to glucose recovery from 50 mg/dl to >= 70 mg/dl at 200 mg (reference value: 33.3 min); format: functional
Homo sapiens [7] = organism: Homo sapiens; assay: Hypoglycemic activity in human assessed as time required to glucose recovery from 50 mg/dl to >= 70 mg/dl at 1 g (reference value: 33.3 min); format: functional
Homo sapiens [8] = organism: Homo sapiens; assay: Hypoglycemic activity in type-2 diabetic human assessed as time required to glucose recovery from 50 mg/dl to >= 63 mg/dl at 1 g in presence of beta blocker propranolol (reference value: 71 min); format: functional
Homo sapiens [9] = assay: In vivo inhibition of gucagon receptor in type-2 diabetic human model at 25 mg, bid measured over 24 hrs relative to control; format: functional
Homo sapiens [10] = assay: In vivo inhibition of gucagon receptor in type-2 diabetic human model at 10 mg, qd measured during day time relative to control; format: functional
Homo sapiens [11] = assay: In vivo inhibition of gucagon receptor in type-2 diabetic human model at 6 mg, qd measured during night time relative to control; format: functional
Homo sapiens [12] = organism: Homo sapiens; assay: Antidiabetic activity in type-2 diabetic human model assessed as decrease in 24 hrs weighted mean glucose level at 10 mg, qd measured during day time; format: functional
Homo sapiens [13] = organism: Homo sapiens; assay: Antidiabetic activity in type-2 diabetic human model assessed as decrease in fasting plasma glucose level at 10 mg, qd measured during day time; format: functional
Homo sapiens [14] = organism: Homo sapiens; assay: Antidiabetic activity in type-2 diabetic human model assessed as decrease in fasting plasma glucose level at 6 mg, qd measured during night time; format: functional
Homo sapiens [15] = organism: Homo sapiens; assay: Antidiabetic activity in type-2 diabetic human model assessed as decrease in fasting plasma glucose level at 25 mg, bid; format: functional
Homo sapiens [16] = organism: Homo sapiens; assay: Toxicity in type-2 diabetic human model assessed as increase in LDL-C level at 25 mg, bid relative to control; format: organism-based; conditions: in vivo
Glucagon receptor [17] = biological target: T1, Glucagon receptor (Homo sapiens, UniProt P47871); assay: Antagonist activity at human glucagon receptor expressed in CHOK1 cells assessed as inhibition of glucagon-stimulated intracellular cAMP formation preincubated for 20 mins followed by glucagon stimulation measured after 30 mins by fluorescent plate reader analysis; format: functional, cell-based; conditions: CHO-K1
T1 sequence (P47871 whole entry): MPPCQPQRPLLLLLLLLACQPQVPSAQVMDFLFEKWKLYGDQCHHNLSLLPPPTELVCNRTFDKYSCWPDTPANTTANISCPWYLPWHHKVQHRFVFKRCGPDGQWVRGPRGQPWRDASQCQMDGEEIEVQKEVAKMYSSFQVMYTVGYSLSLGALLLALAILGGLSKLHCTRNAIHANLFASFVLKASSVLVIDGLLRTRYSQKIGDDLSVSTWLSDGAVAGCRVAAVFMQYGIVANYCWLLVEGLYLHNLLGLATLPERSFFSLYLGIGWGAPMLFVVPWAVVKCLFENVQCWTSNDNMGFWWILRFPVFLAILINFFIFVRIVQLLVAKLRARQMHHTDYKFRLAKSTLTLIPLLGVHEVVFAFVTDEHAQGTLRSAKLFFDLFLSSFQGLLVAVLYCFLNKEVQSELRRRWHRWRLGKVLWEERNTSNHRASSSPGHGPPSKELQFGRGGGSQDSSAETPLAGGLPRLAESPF

Glucagon receptor [18] = biological target: T1, Glucagon receptor; assay: Antagonist activity at recombinant human glucagon receptor expressed in CHO cells assessed as inhibition of glucagon-stimulated intracellular cAMP formation preincubated for 30 mins followed by glucagon stimulation measured after 45 mins by LANCE assay; format: functional, cell-based
Glucagon receptor [19] = biological target: T1, Glucagon receptor; assay: Displacement of [125I]-glucagon from human glucagon receptor expressed in HEK293 cell membranes at 10 uM after 2 hrs by microplate scintillation counting analysis relative to control
Glucagon receptor [20] = biological target: T1, Glucagon receptor; assay: Displacement of [125I]-glucagon from full length human glucagon receptor expressed in HEK293 cell membranes after 2 hrs by scintillation counting analysis
Glucagon receptor [21] = biological target: T1, Glucagon receptor; assay: Antagonist activity at human glucagon receptor expressed in HEK293 cell membranes assessed as inhibition of glucagon-stimulated intracellular cAMP formation preincubated for 30 mins followed by glucagon stimulation measured after 5 mins by TR-FRET analysis; format: functional, cell-based
Glucagon receptor [22] = biological target: T1, Glucagon receptor; assay: Displacement of [125I]-glucagon from human glucagon receptor expressed in Chem-1 cell membranes after 6 to 10 hrs by scintillation proximity assay

half-life [5]: 60 h
SMILES: COc1ccc2cc(-c3cc(-c4cc(Cl)cc(Cl)c4)nn3[C@@H](C)c3ccc(C(=O)NCCC(=O)O)cc3)ccc2c1 [MK-0893]
Activity (Homo sapiens [1]): 0.6%
Activity (Homo sapiens [2]): 1%
Activity (Homo sapiens [3]): 1.5%
Activity (Homo sapiens [4]): 1.8%
Time (Homo sapiens [6]): 45 min
Time (Homo sapiens [7]): 59.1 min
Time (Homo sapiens [8]): 103 min

half-life [5]: 4 h
SMILES: CCC[C@H](c1ccc(C(=O)NCCC(=O)O)cc1)[C@H](c1ccc(Cl)cc1)c1c[nH]c2c(F)cc(C)cc12 [MK-3577]
inhibition (INH) (Homo sapiens [9]): >80%
inhibition (INH) (Homo sapiens [10]): <50%
inhibition (INH) (Homo sapiens [11]): <50%
Activity (Homo sapiens [12]): 18.8 mg/dL
Activity (Homo sapiens [13]): 7.2 mg/dL
Activity (Homo sapiens [14]): 17.5 mg/dL
Activity (Homo sapiens [15]): 31.7 mg/dL
Activity (Homo sapiens [16]): 10%

Kb (Glucagon receptor [17]): 19 nM
SMILES: CC1(C)CC(C(Nc2cnc(-n3cc(C(F)(F)F)cn3)nc2)c2ccc(C(=O)NCCC(=O)O)cc2)C1 (racemic)

IC50 (Glucagon receptor [18]): 61 nM
SMILES: CC(C)(C)CCOc1cccc(C2=NC3(CCC(C(C)(C)C)CC3)N([C@H](CCC(C)(C)C)c3ccc(C(=O)NCc4nn[nH]n4)cc3)C2=O)c1 (stereo partly specified)

SMILES: CC(C)(C)CC[C@H](c1ccc(C(=O)NCCC(=O)O)cc1)N1C(=O)C(c2cccc(F)c2)=NC12CCC([Si](C)(C)C)CC2 (stereo partly specified)
IC50 (Glucagon receptor [18]): 22 nM

Kb (Glucagon receptor [17]): 33 nM
SMILES: Cc1cc2cc(F)ccc2nc1NC(c1ccc(C(=O)NCCC(=O)O)cc1)C1CC(C)(C)C1 (stereo unspecified)

inhibition (Glucagon receptor [19]): 90%
SMILES: Cc1cc(-n2cc3c(n2)CCCC3)ccc1C(CCC(F)(F)F)Nc1ccc(C(=O)N2CCC[C@@H](C(=O)O)C2)cn1 (stereo partly specified)

Ki (Glucagon receptor [20]): 17 nM
IC50 (Glucagon receptor [21]): 22 nM
SMILES: Cc1cc(C(F)(F)F)ccc1-c1ccc(NCc2ccc(C(F)(F)F)cc2-c2ccc(C(=O)NCCC(=O)O)nc2)cc1Cl

inhibition (Glucagon receptor [19]): 91%
SMILES: Cc1cc(-c2ncc(C(F)(F)F)cn2)ccc1C(CCC(F)(F)F)Nc1ccc(C(=O)N2CCC[C@@H](C(=O)O)C2)cc1 (stereo partly specified)

Ki (Glucagon receptor [20]): 20 nM
IC50 (Glucagon receptor [21]): 4 nM
SMILES: Cc1cc(Cl)ccc1-c1ccc(NCc2cc(Cl)cc(C(F)(F)F)c2-c2ccc(C(=O)NCCC(=O)O)nc2)cc1

Kb (Glucagon receptor [17]): 23 nM
SMILES: Cc1cc2ccccc2nc1NC(c1ccc(C(=O)NCCC(=O)O)cc1)C1CC(C)(C)C1 (stereo unspecified)

Kb (Glucagon receptor [17]): 9.5 nM
Ki (Glucagon receptor [22]): 26 nM
SMILES: CCC[C@H](Nc1ccc(-n2cc(-c3ccccc3)cn2)cc1)c1ccc(C(=O)NCCC(=O)O)cc1

Ki (Glucagon receptor [20]): 30 nM
SMILES: Cc1cc(C(F)(F)F)ccc1-c1ccc(NCc2cc(C(C)C)cc(C(F)(F)F)c2-c2ccc(C(=O)NCCC(=O)O)cc2)cc1Cl

From ChEMBL document CHEMBL3616453, “Recent progress in the development of small-molecule glucagon receptor antagonists” (Bioorg Med Chem Lett, 2015)
